Test results as given in paper PMC5238430, “Prebiotic galactooligosaccharides activate mucin and pectic galactan utilization pathways in the human gut symbiont Bacteroides thetaiotaomicron” (Scientific Reports, 2017).

Biological target: T1, BtGH53 (BT_4668), GH53 endo-beta-(1->4)-galactanase (Bacteroides thetaiotaomicron, UniProt Q89YR3)
T1 sequence (Q89YR3 23-353): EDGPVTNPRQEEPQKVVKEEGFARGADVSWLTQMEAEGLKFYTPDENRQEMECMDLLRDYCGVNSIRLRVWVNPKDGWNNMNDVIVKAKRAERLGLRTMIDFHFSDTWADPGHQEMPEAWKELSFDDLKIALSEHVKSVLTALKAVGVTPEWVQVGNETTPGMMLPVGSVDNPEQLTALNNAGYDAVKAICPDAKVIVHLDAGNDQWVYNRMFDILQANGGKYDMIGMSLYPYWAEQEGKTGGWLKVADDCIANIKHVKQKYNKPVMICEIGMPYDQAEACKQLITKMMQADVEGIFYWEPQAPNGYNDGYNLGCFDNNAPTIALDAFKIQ
Experiment: TLC and HPAEC-PAD of hydrolysis products
Type: biochemical
Conditions: component of purified GOS mixture (TS0903), not tested singly; 20 mM Tris pH 7.5, 150 mM NaCl, 37 °C, 16 h

With OC[C@H]1O[C@@H](O[C@@H]2[C@H](O)[C@@H](O)[C@H](O[C@H]3[C@H](O)[C@@H](O)C(O)O[C@@H]3CO)O[C@@H]2CO)[C@H](O)[C@@H](O)[C@H]1O (stereo partly drawn) [compound 9, β-D-Galp-(1 → 4)-β-D-Galp-(1 → 4)-β-D-Glc] the “TLC and HPAEC-PAD of hydrolysis products” value was “BtGH53 hydrolyzes linear DP3 and higher GOS compounds”.
